Results published in patent publication US7709471B2, “Compounds” (AstraZeneca AB, priority 2006, dated 2010).

The molecules below were run against recombinant Plk1 (Homo sapiens, UniProt P53350) (assay: In Vitro Plk1 Enzyme Assay (SPA, GST-Cdc25C phosphorylation)). Details: ATP 64 nM, 90 minutes, read-out: IC50 (Plk1 enzyme inhibition).
Format: biochemical
Procedure: Reactions were stopped by addition of EDTA (110 mM) and the Cdc25C substrate captured via its GST tag to anti-GST antibody (Molecular Probes, Cat No A-5800) coated Protein A PVT SPA beads (Amersham Biosciences, Catalogue No. RPQ0019; 250 μg/well) in 50 mM HEPES pH7.5 buffer containing 0.05% (w/v) sodium azide and incubated for up to 2 hours, followed by the addition of 20 μl of 4M caesium chloride (final assay concentration of 1M). Plates were then left in the dark overnight before counting on a Packard TopCount NXT.
Radiolabelled phosphorylated substrate is formed in situ as a result of Plk1 mediated phosphorylation. The SPA beads contain a scintillant that can be stimulated to emit light. This stimulation only occurs when a radiolabelled phosphorylated substrate is bound to the surface of the coated SPA bead causing the emission of blue light that can be measured on a scintillation counter. Accordingly, the extent of Plk1 mediated Cdc25C phosphorylation was assessed. The raw assay data were then analysed by non-linear regression analysis and Plk1 enzyme inhibition for a given test compound is expressed as an IC50 value.

Chain of recombinant Plk1 (P53350 whole entry): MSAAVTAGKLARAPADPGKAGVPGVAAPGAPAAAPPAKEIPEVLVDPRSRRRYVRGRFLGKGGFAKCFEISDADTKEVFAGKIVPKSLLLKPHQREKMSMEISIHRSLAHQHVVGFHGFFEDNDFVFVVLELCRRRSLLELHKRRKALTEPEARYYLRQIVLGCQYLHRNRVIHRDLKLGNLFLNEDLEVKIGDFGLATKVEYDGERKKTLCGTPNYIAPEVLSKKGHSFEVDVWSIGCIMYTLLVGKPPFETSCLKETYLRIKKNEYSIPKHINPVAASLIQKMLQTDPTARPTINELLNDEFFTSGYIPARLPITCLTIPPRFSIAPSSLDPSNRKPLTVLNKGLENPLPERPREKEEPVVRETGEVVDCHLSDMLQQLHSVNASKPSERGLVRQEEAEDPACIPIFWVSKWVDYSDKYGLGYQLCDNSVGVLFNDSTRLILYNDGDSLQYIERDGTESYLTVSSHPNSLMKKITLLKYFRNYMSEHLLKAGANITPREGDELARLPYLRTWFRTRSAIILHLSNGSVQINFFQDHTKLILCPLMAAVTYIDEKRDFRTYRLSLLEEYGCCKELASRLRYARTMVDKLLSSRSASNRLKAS

Row | SMILES | IC50 [µM]
1 | COc1ccc(Nc2ncc3c(n2)N(C2CCCC2)CCC(=O)N3C)cc1 [Example 120, 6-cyclopentyl-9-[(4-methoxyphenyl)amino]-2-methyl-2,6,8,10-tetrazabicyclo[5.4.0]undeca-8,10,12-trien-3-one] | < 100
2 | CN1C(=O)CCN(C2CCCC2)c2nc(Nc3ccc(N4CCOCC4)cc3)ncc21 [Example 121, 6-cyclopentyl-2-methyl-9-[(4-morpholin-4-ylphenyl)amino]-2,6,8,10-tetrazabicyclo[5.4.0]undeca-8,10,12-trien-3-one] | < 100
3 | COc1cc(Nc2ncc3c(n2)N(C2CCCC2)CCC(=O)N3C)cc(OC)c1OC [Example 129, 6-cyclopentyl-2-methyl-9-[(3,4,5-trimethoxyphenyl)amino]-2,6,8,10-tetrazabicyclo[5.4.0]undeca-8,10,12-trien-3-one] | < 1
4 | CN1C(=O)CCN(C2CCCC2)c2nc(Nc3ccc(S(=O)(=O)N4CCCCC4)cc3)ncc21 [Example 134, 6-cyclopentyl-2-methyl-9-[[4-(1-piperidylsulfonyl)phenyl]amino]-2,6,8,10-tetrazabicyclo[5.4.0]undeca-8,10,12-trien-3-one] | < 100
5 | CN1C(=O)CCN(C2CCCC2)c2nc(Nc3cccc(CNC(=O)OC(C)(C)C)c3)ncc21 [Example 136, tert-butyl N-[[3-[(6-cyclopentyl-2-methyl-3-oxo-2,6,8,10-tetrazabicyclo[5.4.0]undeca-8,10,12-trien-9-yl)amino]phenyl]methyl]carbamate] | < 100
6 | CN1C(=O)c2cccc(Nc3ncc4c(n3)N(C3CCCC3)CCC(=O)N4C)c2C1=O [Example 137, 4-[(6-cyclopentyl-2-methyl-3-oxo-2,6,8,10-tetrazabicyclo[5.4.0]undeca-8,10,12-trien-9-yl)amino]-2-methyl-isoindole-1,3-dione] | < 100
7 | COc1ccccc1Nc1ncc2c(n1)N(C1CCCC1)CCC(=O)N2C [Example 139, 6-cyclopentyl-9-[(2-methoxyphenyl)amino]-2-methyl-2,6,8,10-tetrazabicyclo[5.4.0]undeca-8,10,12-trien-3-one] | < 1
8 | CCOc1ccccc1Nc1ncc2c(n1)N(C1CCCC1)CCC(=O)N2C [Example 140, 6-cyclopentyl-9-[(2-ethoxyphenyl)amino]-2-methyl-2,6,8,10-tetrazabicyclo[5.4.0]undeca-8,10,12-trien-3-one] | < 100
9 | CSc1ccccc1Nc1ncc2c(n1)N(C1CCCC1)CCC(=O)N2C [Example 141, 6-cyclopentyl-2-methyl-9-[(2-methylsulfanylphenyl)amino]-2,6,8,10-tetrazabicyclo[5.4.0]undeca-8,10,12-trien-3-one] | < 100
10 | CN1C(=O)CCN(C2CCCC2)c2nc(Nc3ccccc3O)ncc21 [Example 142, 6-cyclopentyl-9-[(2-hydroxyphenyl)amino]-2-methyl-2,6,8,10-tetrazabicyclo[5.4.0]undeca-8,10,12-trien-3-one] | < 0.3
11 | CN1C(=O)CCN(C2CCCC2)c2nc(Nc3ccccc3C(=O)c3ccccc3)ncc21 [Example 144, 9-[(2-benzoylphenyl)amino]-6-cyclopentyl-2-methyl-2,6,8,10-tetrazabicyclo[5.4.0]undeca-8,10,12-trien-3-one] | < 100
12 | CN1C(=O)CCN(C2CCCC2)c2nc(Nc3ccccc3S(N)(=O)=O)ncc21 [Example 145, 2-[(6-cyclopentyl-2-methyl-3-oxo-2,6,8,10-tetrazabicyclo[5.4.0]undeca-8,10,12-trien-9-yl)amino]benzenesulfonamide] | < 100
13 | CN1C(=O)CCN(C2CCCC2)c2nc(Nc3ccccc3Oc3ccccc3)ncc21 [Example 146, 6-cyclopentyl-2-methyl-9-[(2-phenoxyphenyl)amino]-2,6,8,10-tetrazabicyclo[5.4.0]undeca-8,10,12-trien-3-one] | < 100
14 | CN1C(=O)CCN(C2CCCC2)c2nc(Nc3ccccc3Br)ncc21 [Example 147, 9-[(2-bromophenyl)amino]-6-cyclopentyl-2-methyl-2,6,8,10-tetrazabicyclo[5.4.0]undeca-8,10,12-trien-3-one] | < 100
15 | CN1C(=O)CCN(C2CCCC2)c2nc(Nc3ccccc3-c3ccccc3)ncc21 [Example 148, 6-cyclopentyl-2-methyl-9-[(2-phenylphenyl)amino]-2,6,8,10-tetrazabicyclo[5.4.0]undeca-8,10,12-trien-3-one] | < 100
16 | CN1C(=O)CCN(C2CCCC2)c2nc(Nc3ccccc3S(C)(=O)=O)ncc21 [Example 149, 6-cyclopentyl-2-methyl-9-[(2-methylsulfonylphenyl)amino]-2,6,8,10-tetrazabicyclo[5.4.0]undeca-8,10,12-trien-3-one] | < 100
17 | CC(C)c1ccccc1Nc1ncc2c(n1)N(C1CCCC1)CCC(=O)N2C [Example 150, 6-cyclopentyl-2-methyl-9-[(2-propan-2-ylphenyl)amino]-2,6,8,10-tetrazabicyclo[5.4.0]undeca-8,10,12-trien-3-one] | < 1
18 | CCCCc1ccccc1Nc1ncc2c(n1)N(C1CCCC1)CCC(=O)N2C [Example 151, 9-[(2-butylphenyl)amino]-6-cyclopentyl-2-methyl-2,6,8,10-tetrazabicyclo[5.4.0]undeca-8,10,12-trien-3-one] | < 100

Row | SMILES | IC50 [µM]
19 | CN1C(=O)CCN(C2CCCC2)c2nc(Nc3ccccc3Oc3ccc(C(C)(C)C)cc3)ncc21 [Example 153, 6-cyclopentyl-2-methyl-9-[[2-(4-tert-butylphenoxy)phenyl]amino]-2,6,8,10-tetrazabicyclo[5.4.0]undeca-8,10,12-trien-3-one] | < 100
20 | CCNS(=O)(=O)c1ccccc1Nc1ncc2c(n1)N(C1CCCC1)CCC(=O)N2C [Example 154, 2-[(6-cyclopentyl-2-methyl-3-oxo-2,6,8,10-tetrazabicyclo[5.4.0]undeca-8,10,12-trien-9-yl)amino]-N-ethyl-benzenesulfonamide] | < 100
21 | CNS(=O)(=O)c1ccccc1Nc1ncc2c(n1)N(C1CCCC1)CCC(=O)N2C [Example 155, 2-[(6-cyclopentyl-2-methyl-3-oxo-2,6,8,10-tetrazabicyclo[5.4.0]undeca-8,10,12-trien-9-yl)amino]-N-methyl-benzenesulfonamide] | < 100
22 | CN1C(=O)CCN(C2CCCC2)c2nc(Nc3ccccc3NCCN3CCOCC3)ncc21 [Example 156, 6-cyclopentyl-2-methyl-9-[[2-(2-morpholin-4-ylethylamino)phenyl]amino]-2,6,8,10-tetrazabicyclo[5.4.0]undeca-8,10,12-trien-3-one] | < 100
23 | CN1C(=O)CCN(C2CCCC2)c2nc(Nc3ccccc3Cc3ccccc3)ncc21 [Example 157, 9-[(2-benzylphenyl)amino]-6-cyclopentyl-2-methyl-2,6,8,10-tetrazabicyclo[5.4.0]undeca-8,10,12-trien-3-one] | < 100
24 | CN1C(=O)CCN(C2CCCC2)c2nc(Nc3ccccc3CN3CCOCC3)ncc21 [Example 160, 6-cyclopentyl-2-methyl-9-[[2-(morpholin-4-ylmethyl)phenyl]amino]-2,6,8,10-tetrazabicyclo[5.4.0]undeca-8,10,12-trien-3-one] | < 100
25 | COc1cccc(Nc2ncc3c(n2)N(C2CCCC2)CCC(=O)N3C)c1 [Example 161, 6-cyclopentyl-9-[(3-methoxyphenyl)amino]-2-methyl-2,6,8,10-tetrazabicyclo[5.4.0]undeca-8,10,12-trien-3-one] | < 1
26 | CCOc1cccc(Nc2ncc3c(n2)N(C2CCCC2)CCC(=O)N3C)c1 [Example 162, 6-cyclopentyl-9-[(3-ethoxyphenyl)amino]-2-methyl-2,6,8,10-tetrazabicyclo[5.4.0]undeca-8,10,12-trien-3-one] | < 1
27 | CSc1cccc(Nc2ncc3c(n2)N(C2CCCC2)CCC(=O)N3C)c1 [Example 163, 6-cyclopentyl-2-methyl-9-[(3-methylsulfanylphenyl)amino]-2,6,8,10-tetrazabicyclo[5.4.0]undeca-8,10,12-trien-3-one] | < 100
28 | CN1C(=O)CCN(C2CCCC2)c2nc(Nc3cccc(C#N)c3)ncc21 [Example 164, 3-[(6-cyclopentyl-2-methyl-3-oxo-2,6,8,10-tetrazabicyclo[5.4.0]undeca-8,10,12-trien-9-yl)amino]benzonitrile] | < 100
29 | CCc1cccc(Nc2ncc3c(n2)N(C2CCCC2)CCC(=O)N3C)c1 [Example 166, 6-cyclopentyl-9-[(3-ethylphenyl)amino]-2-methyl-2,6,8,10-tetrazabicyclo[5.4.0]undeca-8,10,12-trien-3-one] | < 100
30 | C#Cc1cccc(Nc2ncc3c(n2)N(C2CCCC2)CCC(=O)N3C)c1 [Example 168, 6-cyclopentyl-9-[(3-ethynylphenyl)amino]-2-methyl-2,6,8,10-tetrazabicyclo[5.4.0]undeca-8,10,12-trien-3-one] | < 100
31 | CN1C(=O)CCN(C2CCCC2)c2nc(Nc3cccc(C(=O)c4ccccc4)c3)ncc21 [Example 169, 9-[(3-benzoylphenyl)amino]-6-cyclopentyl-2-methyl-2,6,8,10-tetrazabicyclo[5.4.0]undeca-8,10,12-trien-3-one] | < 100
32 | CN1C(=O)CCN(C2CCCC2)c2nc(Nc3cccc(S(C)(=O)=O)c3)ncc21 [Example 172, 6-cyclopentyl-2-methyl-9-[(3-methylsulfonylphenyl)amino]-2,6,8,10-tetrazabicyclo[5.4.0]undeca-8,10,12-trien-3-one] | < 100
33 | CC(C)c1cccc(Nc2ncc3c(n2)N(C2CCCC2)CCC(=O)N3C)c1 [Example 174, 6-cyclopentyl-2-methyl-9-[(3-propan-2-ylphenyl)amino]-2,6,8,10-tetrazabicyclo[5.4.0]undeca-8,10,12-trien-3-one] | < 100
34 | CN1C(=O)CCN(C2CCCC2)c2nc(Nc3cccc(S(=O)(=O)N4CCOCC4)c3)ncc21 [Example 183, 6-cyclopentyl-2-methyl-9-[(3-morpholin-4-ylsulfonylphenyl)amino]-2,6,8,10-tetrazabicyclo[5.4.0]undeca-8,10,12-trien-3-one] | < 100
35 | CNC(=O)c1ccc(Nc2ncc3c(n2)N(C2CCCC2)CCC(=O)N3C)c(OCCOC)c1 [Example 196, 4-[(6-cyclopentyl-2-methyl-3-oxo-2,6,8,10-tetrazabicyclo[5.4.0]undeca-8,10,12-trien-9-yl)amino]-3-(2-methoxyethoxy)-N-methyl-benzamide] | < 1
